Values quoted from earlier work in US4093713A, “Dipeptide derivatives with central nervous system activity and preparation thereof” (Ayerst McKenna & Harrison Ltd., priority 1977, dated 1978).
Read-outs that look alike come from different tables or passages of the source.

Experiments:
[1] = test system: behavioral effects of L-DOPA; settings: literature: Plotnikoff 1971, Friedman 1973
effects of oxotremorin = settings: literature: Plotnikoff 1972
[2] = test system: sedative effects of deserpidine; settings: mice; literature: Plotnikoff
[3] = test system: sedative effects of deserpidine; settings: monkeys; literature: Plotnikoff
[4] = in vivo

In the case of “H-L-prolyl-L-leucyl-glycinamide [H-Pro-Leu-Gly-NH2]”, the “potentiation of the behavioral effects of L-DOPA” value [1] is listed as “potentiates the behavioral effects of (3,4-dihydroxyphenyl)-L-alanine (L-DOPA)”, the “antagonism of the effects of oxotremorin” value (effects of oxotremorin) is listed as “antagonizes the effects of oxotremorin” and the “reversal of the sedative effects of deserpidine” value [2] is listed as “reverses the sedative effects of deserpidine”. For the same substance, the “reversal of the sedative effects of deserpidine” value [3] was “reverses the sedative effects of deserpidine”, the duration of action [4] was “short duration of action” and the “first step in the inactivation” value [4] was “proteolytic cleavage of the Pro-Leu bond with formation of proline and leucyl-glycinamide”.
